What was measured:
Type in all cases: in vivo
Chenopodium album [1] = assay: Test Example 3: herbicidal effect test by treatment of dry field farming soil (one day after seeding); details: 120 g/10a active ingredient, evaluated 14 days after treatment
Procedure, shortened: (§1)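 Alluvial dry-field soil in pots, top 1 cm mixed with 20 seeds per weed species. One day after seeding, the water-diluted emulsion was sprayed onto the soil surface at 100 L per 10 ares (120 g active ingredient per 10 ares). Duplicate pots; herbicidal rate (%) from plant dry weight versus untreated, 14 days after treatment.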

southern crabgrass [2] = assay: as above; details: 120 g/10a active ingredient, evaluated 14 days after treatment
Procedure, shortened: as §1

Echinochloa crus-galli [3] = assay: as above; details: 120 g/10a active ingredient, evaluated 14 days after treatment
Procedure, shortened: as §1

Amaranthus viridis [4] = assay: as above; details: 120 g/10a active ingredient, evaluated 14 days after treatment
Procedure, shortened: as §1

Chenopodium album [5] = assay: Test Example 4: herbicidal effect test by treatment of leave and stem in dry field farming (seven days after seeding); details: 120 g/10a active ingredient; emulsion sprayed seven days after seeding; evaluated 14 days after treatment
Procedure, shortened: (§2)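 Twenty seeds per species were mixed into the top 1 cm of alluvial soil in 36 cm^2 pots; emulsions were sprayed seven days after seeding at 100 L per 10 ares (120 g active ingredient per 10 ares). Herbicidal rate (%) = {1 − treated/untreated mean dry weight} × 100, 14 days after treatment, duplicate.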

southern crabgrass [6] = assay: as above; details: 120 g/10a active ingredient; emulsion sprayed seven days after seeding; evaluated 14 days after treatment
Procedure, shortened: as §2

Echinochloa crus-galli [7] = assay: as above; details: 120 g/10a active ingredient; emulsion sprayed seven days after seeding; evaluated 14 days after treatment
Procedure, shortened: as §2

Amaranthus viridis [8] = assay: as above; details: 120 g/10a active ingredient; emulsion sprayed seven days after seeding; evaluated 14 days after treatment
Procedure, shortened: as §2

Scirpus juncoides [9] = assay: Test Example 1: herbicidal effect test by treatment of rice paddy soil (immediately after seeding); details: 120 g/10a active ingredient, dry weight vs untreated area, 14 days after treatment
Procedure, shortened: (§3)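 Puddled, fertilized (N:P:K=17:17:17) paddy soil in Wagner pots; seeds sown 0–1 cm deep, flooded to about 3 cm. Emulsifiable formulations diluted in water and dropped into the water immediately after seeding at 120 g active ingredient per 10 ares; greenhouse. Herbicidal rate from dry weight vs untreated at 14 days.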

[10] = tested on: broad leaf weeds (Lindernia pyxidaria and Monochoria vaginalis); assay: as above; details: 120 g/10a active ingredient, dry weight vs untreated area, 14 days after treatment
Procedure, shortened: as §3

Echinochloa crus-galli [11] = assay: as above; details: 120 g/10a active ingredient, dry weight vs untreated area, 14 days after treatment
Procedure, shortened: as §3

Scirpus juncoides [12] = assay: Test Example 2: herbicidal effect test by treatment during growing period in paddy rice cultivation (seven days after seeding); details: 120 g/10a active ingredient, assessed 14 days after treatment, dry weight vs untreated area
Procedure, shortened: (§4)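 Seeds sown 0–1 cm deep in puddled, fertilised paddy soil with about 3 cm standing water in a glass greenhouse. Diluted emulsion dropped into the water seven days after seeding at 120 g active ingredient per 10 ares. Herbicidal rate (%) from mean dry weight vs untreated, duplicate, 14 days after treatment.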

[13] = tested on: broad leaf weeds (Lindernia pyxidaria and Monochoria vaginalis); assay: as above; details: 120 g/10a active ingredient, assessed 14 days after treatment, dry weight vs untreated area
Procedure, shortened: as §4

Echinochloa crus-galli [14] = assay: as above; details: 120 g/10a active ingredient, assessed 14 days after treatment, dry weight vs untreated area
Procedure, shortened: as §4

| Compound | herbicidal rate, Chenopodium album (Chenopodium album [1]) | herbicidal rate, southern crabgrass (southern crabgrass [2]) | herbicidal rate, Echinochloa crus-galli (Echinochloa crus-galli [3]) | herbicidal rate, Amaranthus viridis (Amaranthus viridis [4]) | herbicidal effect (herbicidal rate), Chenopodium album (Chenopodium album [5]) | herbicidal effect (herbicidal rate), southern crabgrass (southern crabgrass [6]) | herbicidal effect (herbicidal rate), Echinochloa crus-galli (Echinochloa crus-galli [7]) | herbicidal effect (herbicidal rate), Amaranthus viridis (Amaranthus viridis [8]) | Herbicidal rate (%) Scirpus juncoides (Scirpus juncoides [9]) | Herbicidal rate (%) Lindernia pyxidaria [10] | Herbicidal rate (%) Monochoria vaginalis [10] | Herbicidal rate (%) Echinochloa crus-galli (Echinochloa crus-galli [11]) | Herbicidal rate (%) Scirpus juncoides (Scirpus juncoides [12]) | Herbicidal rate (%) Lindernia pyxidaria [13] | Herbicidal rate (%) Monochoria vaginalis [13] | Herbicidal rate (%) Echinochloa crus-galli (Echinochloa crus-galli [14]) |
| --- | --- | --- | --- | --- | --- | --- | --- | --- | --- | --- | --- | --- | --- | --- | --- | --- |
| CCC(C)n1oc(=O)c(Cc2ccccc2N(C(=O)OCCOC)S(=O)(=O)C(F)(F)F)c1C (stereo not shown) [Compound 1-731] | 90% | 90% | 90% | 90% | 40% | 90% | 90% | 40% | 90% | 90% | 90% | 90% | 90% | 90% | 90% | 90% |
| CCC(C)Cn1oc(=O)c(Cc2ccccc2N(C(=O)OCCOC)S(=O)(=O)C(F)(F)F)c1C (stereo not shown) [Compound 1-733] | 60% | 100% | 100% | 80% | 60% | 80% | 90% | 60% | 100% | 90% | 90% | 100% | 90% | 70% | 90% | 100% |
| COCCOC(=O)N(c1ccccc1Cc1c(C)n(CCSC)oc1=O)S(=O)(=O)C(F)(F)F [Compound 1-735] | 90% | 90% | 90% | 90% | 40% | 90% | 90% | 40% | 90% | 90% | 90% | 90% | 90% | 90% | 90% | 90% |
| COCCOC(=O)N(c1ccccc1Cc1c(C)n(C(C)c2ccccc2)oc1=O)S(=O)(=O)C(F)(F)F (stereo not shown) [Compound 1-736] | 90% | 90% | 90% | 90% | 40% | 90% | 90% | 40% | 90% | 90% | 90% | 90% | 90% | 90% | 90% | 90% |
| Cc1c(Cc2ccccc2N(C(=O)Oc2ccccc2)S(=O)(=O)C(F)(F)F)c(=O)on1C(C)(C)C [Compound 1-762] | 90% | 90% | 90% | 90% | 40% | 90% | 90% | 40% | 90% | 90% | 90% | 90% | 90% | 90% | 90% | 90% |
| CCC(C)n1oc(=O)c(Cc2ccccc2N(C(=O)Oc2ccccc2)S(=O)(=O)C(F)(F)F)c1C (stereo not shown) [Compound 1-763] | 90% | 90% | 90% | 90% | 40% | 90% | 90% | 40% | 90% | 90% | 90% | 90% | 90% | 90% | 90% | 90% |
| COCC(C)n1oc(=O)c(Cc2ccccc2N(C(=O)Oc2ccccc2)S(=O)(=O)C(F)(F)F)c1C (stereo not shown) [Compound 1-765] | 90% | 90% | 90% | 90% | 40% | 90% | 90% | 40% | 90% | 90% | 90% | 90% | 90% | 90% | 90% | 90% |
| Cc1c(Cc2ccccc2N(C(=O)Oc2ccccc2)S(=O)(=O)C(F)(F)F)c(=O)on1C(C)c1ccccc1 (stereo not shown) [Compound 1-766] | 90% | 90% | 90% | 90% | 40% | 90% | 90% | 40% | 90% | 90% | 90% | 90% | 90% | 90% | 90% | 90% |
| Cc1c(Cc2ccccc2N(C(=O)OCc2ccccc2)S(=O)(=O)C(F)(F)F)c(=O)on1C(C)(C)C [Compound 1-781] | 90% | 90% | 90% | 90% | 40% | 90% | 90% | 40% | 90% | 90% | 90% | 90% | 90% | 90% | 90% | 90% |
| Cc1c(Cc2ccccc2N(C(=O)OCc2ccccc2)S(=O)(=O)C(F)(F)F)c(=O)on1CC(C)C [Compound 1-785] | 90% | 90% | 90% | 90% | 40% | 90% | 90% | 40% | 90% | 90% | 90% | 90% | 90% | 90% | 90% | 90% |

Source: patent publication US11109593B2, “Isoxazolin-5-one derivative and herbicide containing same as active ingredient” (HOKKO CHEMICAL INDUSTRY CO., LTD., priority 2017, dated 2021)
